Laboratory results: US5708016A, “Pseudopeptides derived from neurokinins” (Adir et Compagnie, priority 1996, dated 1998)

Assays:
human NK1 receptor = target: T1, human NK1 receptor (Homo sapiens, UniProt P25103); test: Affinity for the human NK1 receptor on IM-9 human lymphoblasts; format: binding
T1 construct: IM-9 human lymphoblasts specifically expressing the NK1 receptor; endogenous in cells; host or cells: IM-9 human lymphoblasts
From the text: (§1) The affinity for the human NK1 and NK2 receptors was studied on IM-9 human lymphoblasts specifically expressing the NK1 receptor as described by D. G. Payan et al. (J. Biol. Chem. 1986, 261, 14321-14329) and on CHO-K1 cells transfected with the NK2 receptor according to the CellPhect transfection kit (Pharmacia).

NK1 receptors = target: T2, NK1 receptors (Oryctolagus cuniculus, UniProt G1SEI7); test: Isolated smooth muscle: rabbit vena cava (RVC) contraction, antagonist pA2; format: biochemical
T2 construct: two isolated preparations of smooth muscle were used: the rabbit vena cava (RVC); from tissue; host or cells: rabbit vena cava
T2 sequence (G1SEI7 1-407): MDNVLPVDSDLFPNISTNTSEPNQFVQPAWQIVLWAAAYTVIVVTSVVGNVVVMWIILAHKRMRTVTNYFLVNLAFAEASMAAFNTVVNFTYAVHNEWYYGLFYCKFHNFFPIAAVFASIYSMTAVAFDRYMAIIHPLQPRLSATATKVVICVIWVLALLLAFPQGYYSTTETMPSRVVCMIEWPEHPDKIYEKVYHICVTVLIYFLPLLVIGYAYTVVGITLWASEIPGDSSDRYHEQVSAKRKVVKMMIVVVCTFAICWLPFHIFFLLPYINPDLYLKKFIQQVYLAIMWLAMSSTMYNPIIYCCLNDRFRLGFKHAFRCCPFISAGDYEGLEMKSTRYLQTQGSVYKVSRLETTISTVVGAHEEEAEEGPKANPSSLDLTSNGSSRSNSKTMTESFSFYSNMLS
From the text: (§2) In order to evaluate the functional activity of the compounds of the invention as neurokinin antagonists, two isolated preparations of smooth muscle were used: the rabbit vena cava (RVC) and the rabbit pulmonary artery without endothelium (RPA), the contractile responses of which are mediated, respectively, by the NK1 and NK2 receptors as shown by D. Jukic et al. (Life Sci. 1991, 49, 1463-1469).
(§3) The antagonist power of the compounds of the invention was expressed in the form of pA2 as defined by O. Arunlakshana and H. O. Schild (Brit. J. Pharmacol. 1959, 14, 48-58).

NK2 receptors = target: T3, NK2 receptors (Oryctolagus cuniculus, UniProt P79218); test: Isolated smooth muscle: rabbit pulmonary artery without endothelium (RPA) contraction, antagonist pA2; format: biochemical
T3 construct: the rabbit pulmonary artery without endothelium (RPA); from tissue; host or cells: rabbit pulmonary artery without endothelium
T3 sequence (P79218 1-384): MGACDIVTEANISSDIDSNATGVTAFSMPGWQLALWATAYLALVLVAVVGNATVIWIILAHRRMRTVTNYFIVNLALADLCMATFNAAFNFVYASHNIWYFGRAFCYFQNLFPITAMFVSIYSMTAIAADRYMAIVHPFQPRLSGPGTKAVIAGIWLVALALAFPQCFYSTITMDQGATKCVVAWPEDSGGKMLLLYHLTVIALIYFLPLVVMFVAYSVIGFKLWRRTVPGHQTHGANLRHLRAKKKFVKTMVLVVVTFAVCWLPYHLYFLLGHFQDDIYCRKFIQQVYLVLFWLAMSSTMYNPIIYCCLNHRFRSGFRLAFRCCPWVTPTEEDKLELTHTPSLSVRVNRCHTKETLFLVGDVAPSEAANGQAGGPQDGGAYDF
From the text: as §2, §3

[1] = tested on: substance P-induced bronchoconstriction; test: Inhibition of substance P-induced bronchoconstriction in guinea pigs; format: in vivo
Description: The study is carried out on male Hartley guinea pigs (Charles River) weighing 300 to 400 g on average. The study is carried out on anesthetized (ethyl carbamate 1.5 g/kg) and Flaxedilcurarized (0.2 mg/kg iv) animals ventilated at a rate of 60 per minute and a volumetric flow of 10ml/kg. The animals are pretreated with pyrilamine (1 mg/kg iv) and propranolol (1 mg/kg iv).
The criterion of judgment of bronchoconstriction is the increase in tracheal insufflation pressure (TIP) induced by the iv injection of substance P at a dose of 2 nM/kg iv, each animal being its own control. Injection of the test product is performed with reference to the time TO of the injection of the product.
The results are expressed as a dose inhibiting substance P-induced bronchoconstriction by 50%, this percentage being calculated according to the following formula: (ΔTIP before product-ΔTIP after product)/ΔTIP before product (expressed as a percentage).

human NK2 receptor = target: T4, human NK2 receptor (Homo sapiens, UniProt P21452); test: Affinity for the human NK2 receptor on transfected CHO-K1 cells; format: binding; conditions: CHO-K1 cells transfected with the NK2 receptor
T4 construct: expressed in transfected cells; host or cells: CHO-K1
T4 sequence (P21452 1-398): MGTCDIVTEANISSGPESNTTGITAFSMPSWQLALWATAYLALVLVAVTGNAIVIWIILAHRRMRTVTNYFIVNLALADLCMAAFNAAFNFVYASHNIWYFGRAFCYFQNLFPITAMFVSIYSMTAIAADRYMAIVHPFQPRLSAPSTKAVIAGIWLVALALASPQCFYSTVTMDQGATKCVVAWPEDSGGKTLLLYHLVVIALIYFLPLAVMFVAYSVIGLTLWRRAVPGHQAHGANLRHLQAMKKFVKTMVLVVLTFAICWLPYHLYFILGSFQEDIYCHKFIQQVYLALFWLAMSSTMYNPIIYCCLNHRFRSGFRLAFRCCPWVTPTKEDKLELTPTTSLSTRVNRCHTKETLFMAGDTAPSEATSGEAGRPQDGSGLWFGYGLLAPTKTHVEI
From the text: as §1

[2] = tested on: capsaicin-induced plasma extravasation; test: Inhibition of capsaicin-induced plasma extravasation in guinea pig bronchi; format: in vivo, guinea pigs; conditions: iv 5 minutes before capsaicin 200 μg/kg iv, Evans blue
Description: The effect of the compounds on the plasma extravasation caused by intravenous injection of capsaicin (200 μg/kg) in guinea pigs was evaluated in the bronchi according to the method described by Robineau et al (Eur. J. Pharmacol., 1995, 294, 677-684). The accumulation in the bronchi of Evans blue injected IV 1 minute before capsaicin was quantified by spectrophotometry after extraction of the dye with acetone. The inhibitory activity of the compounds via the intravenous route 5 minutes before capsaicin was expressed as a 50% inhibitory dose in comparison to a control group (8 animals per group).

T1 sequence (P25103 whole entry): as the sequence (G1SEI7 1-407) above, with F12S, D189N, A369P, E371D, N376T, G386C, N391D, Y402S, M405V counted along it

In the case of O=C(OCc1cc(C(F)(F)F)cc(C(F)(F)F)c1)[C@H](Cc1c[nH]c2ccccc12)NC(=O)[C@@H]1C[C@@H](O)CN1C(=O)c1cn(CCCCc2nnn[nH]2)c2ccccc12.[K] [Example 1, {1-[4-(1H-Tetrazol-5-yl)butyl]-3-indolyl}carbonyl-Hyp-Trp-OBzl(3,5-ditrifluoromethyl) potassium salt], the Ki (human NK1 receptor) is reported as 0.0024 µM, the “pA2 in relation to the NK1 receptors” value (NK1 receptors) is reported as 8.9 and the “pA2 in relation to the NK2 receptors” value (NK2 receptors) is reported as 5.2. The “ED50, dose inhibiting substance P-induced bronchoconstriction by 50%” value ([1]; anesthetized guinea pigs, substance P 2 nM/kg iv, tracheal insufflation pressure) was 0.06 mg/kg, the “Potency relative to compound of Example 1 of Patent EP 684,257” value ([1]; substance P-induced bronchoconstriction, guinea pigs) was “two and a half times as potent” and the Ki (human NK2 receptor) was 4.2 µM. The “ED50, inhibition of capsaicin-induced plasma extravasation” value [2] was 0.026 mg/kg.
